Experimental findings from patent US9085576B2 (AMGEN INC., priority 2013, dated 2015) are described below.

The target of test [1] is Cathepsin D (Cat D) (Homo sapiens (Human), UniProt P07339). Put plainly: In vitro enzymatic Cathepsin D (Cat D) FRET assay. In kind it is biochemical. As to conditions: read-out: CatD IC50.
For test [2], the target named is Beta Secretase enzyme (BACE) (Homo sapiens (Human), UniProt P56817). Briefly: In vitro enzymatic BACE FRET assay. In kind it is biochemical. Conditions: read-out: BACE1 Enzyme assay IC50.
Procedure: In Vitro Enzymatic BACE FRET (Fluorescence Resonance Energy Transfer) Assay (Enzyme Assay Data in the Example Table I)
The assay buffer used in this screen is 0.05 M acetate, pH 4.2, 10% DMSO final, 100 uM genapol (which is a nonionic detergent, below its Critical Micelle Concentration). […] This assay is effectively started by the addition of FRET substrate (50 nM) and the combination is incubated for one hour. The FRET assay is terminated with by addition of Tris buffer, which raises the pH to neutrality, and the fluorescence is determined. The FRET substrate is a peptide with commercially available fluorophore and quencher, on opposite sides of the BACE cleavage site.
Test [3] addresses BACE (Homo sapiens (Human), UniProt P56817). Briefly: In vitro BACE cell-based assay (Aβ40 in conditioned medium, sandwich ELISA). (In general: ELISA stands for enzyme-linked immunosorbent assay.)

Sequence of BACE (P56817 46-501, species assumed): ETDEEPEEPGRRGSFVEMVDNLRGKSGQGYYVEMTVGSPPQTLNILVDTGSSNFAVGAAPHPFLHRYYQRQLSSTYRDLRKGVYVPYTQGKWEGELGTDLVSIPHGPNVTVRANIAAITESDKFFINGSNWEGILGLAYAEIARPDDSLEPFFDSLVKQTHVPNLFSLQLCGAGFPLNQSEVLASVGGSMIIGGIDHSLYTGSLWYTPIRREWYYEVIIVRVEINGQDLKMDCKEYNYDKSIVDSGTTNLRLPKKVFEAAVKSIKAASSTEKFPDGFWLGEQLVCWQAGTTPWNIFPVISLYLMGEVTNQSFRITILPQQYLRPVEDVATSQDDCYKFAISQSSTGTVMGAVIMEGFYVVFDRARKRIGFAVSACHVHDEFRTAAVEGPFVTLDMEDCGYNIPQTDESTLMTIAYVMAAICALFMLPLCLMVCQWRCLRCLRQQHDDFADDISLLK
Sequence of Beta Secretase enzyme (BACE) (P56817 46-501): as the sequence (P56817 46-501, species assumed) above
Sequence of Cathepsin D (Cat D) (P07339 65-412, species assumed): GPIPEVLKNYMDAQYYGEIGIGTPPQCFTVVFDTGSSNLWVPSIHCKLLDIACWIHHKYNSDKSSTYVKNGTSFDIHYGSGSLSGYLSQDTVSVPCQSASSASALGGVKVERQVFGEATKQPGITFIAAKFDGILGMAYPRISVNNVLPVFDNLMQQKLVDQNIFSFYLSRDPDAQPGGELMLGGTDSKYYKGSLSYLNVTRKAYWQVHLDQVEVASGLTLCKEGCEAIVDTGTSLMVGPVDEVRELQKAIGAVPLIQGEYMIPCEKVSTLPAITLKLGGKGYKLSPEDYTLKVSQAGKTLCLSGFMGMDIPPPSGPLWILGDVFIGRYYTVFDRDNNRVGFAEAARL

On to `Cc1cc(C(F)(F)F)cnc1C(=O)Nc1ccc(Cl)c([C@@]2(C(F)F)N=C(N)O[C@@H]3C[C@@H]32)c1` [Example 217, N-(3-((1R,5S,6R)-3-amino-5-(difluoromethyl)-2-oxa-4-azabicyclo[4.1.0]hept-3-en-5-yl)-4-chlorophenyl)-3-methyl-5-(trifluoromethyl) picolinamide], for which the IC50 worked out at 206 µM in test [1], 0.0151 µM in test [2] and 0.0116 µM in test [3].
For the compound `C#CCOc1cnc(C(=O)Nc2ccc(Cl)c([C@@]3(C(F)F)N=C(N)O[C@@H]4C[C@@H]43)c2)cn1` [Example 221, N-(3-((1R,5S,6R)-3-amino-5-(difluoromethyl)-2-oxa-4-azabicyclo[4.1.0]hept-3-en-5-yl)-4-chlorophenyl)-5-(prop-2-yn-1-yloxy)pyrazine-2-carboxamide], the IC50 in test [1] was determined as 51.1 µM; in test [2] it was 0.0027 µM; in test [3] it was 0.0033 µM.
The matching figures for `Cc1cc(C#N)cnc1C(=O)Nc1ccc(Cl)c([C@@]2(C(F)F)N=C(N)O[C@@H]3C[C@@H]32)c1` [Example 223, N-(3-((1R,5S,6R)-3-amino-5-(difluoromethyl)-2-oxa-4-azabicyclo[4.1.0]hept-3-en-5-yl)-4-chlorophenyl)-5-cyano-3-methylpicolinamide]: 541 µM, 0.0184 µM and 0.0314 µM.
Turning to `NC1=N[C@@](c2cc(NC(=O)c3nn(C(F)F)cc3Cl)ccc2Cl)(C(F)F)[C@H]2C[C@H]2O1` [Example 224, N-(3-((1R,5S,6R)-3-amino-5-(difluoromethyl)-2-oxa-4-azabicyclo[4.1.0]hept-3-en-5-yl)-4-chlorophenyl)-4-chloro-1-(difluoromethyl)-1H-pyrazole-3-carboxamide], the concentration for half-maximal inhibition (IC50) came out at 510 µM in test [1], 0.0105 µM in test [2] and 0.0252 µM in test [3].
On the same counts, the results for `COc1cnc(C(=O)Nc2ccc(Cl)c([C@@]3(C(F)F)N=C(N)O[C@@H]4C[C@@H]43)c2)cn1` [Example 226, N-(3-((1R,5S,6R)-3-amino-5-(difluoromethyl)-2-oxa-4-azabicyclo[4.1.0]hept-3-en-5-yl)-4-chlorophenyl)-5-methoxypyrazine-2-carboxamide] are 363 µM, 0.0895 µM and 0.0394 µM.
The matching figures for `NC1=N[C@@](CF)(c2cc(NC(=O)c3ccc(Cl)cn3)cnc2F)[C@@H]2C[C@@H]2O1` [Example 230, N-(5-((1S,5R,6S)-3-amino-5-(fluoromethyl)-2-oxa-4-azabicyclo[4.1.0]hept-3-en-5-yl)-6-fluoropyridin-3-yl)-5-chloropicolinamide]: greater than 400 µM, 12 µM and 2.23 µM.
On the same counts, the results for `NC1=N[C@](CF)(c2cc(NC(=O)c3ccc(Cl)cn3)cnc2F)[C@H]2C[C@H]2O1` [Example 231, N-(5-((1R,5S,6R)-3-amino-5-(fluoromethyl)-2-oxa-4-azabicyclo[4.1.0]hept-3-en-5-yl)-6-fluoropyridin-3-yl)-5-chloropicolinamide] are 390 µM, 0.165 µM and 0.0277 µM.
Regarding `C#CCOc1ccc(C(=O)Nc2ccc(F)c([C@@]3(C(F)F)N=C(N)O[C@@H]4C[C@@H]43)c2)nc1` [Example 232, N-(3-((1R,5S,6R)-3-amino-5-(difluoromethyl)-2-oxa-4-azabicyclo[4.1.0]hept-3-en-5-yl)-4-fluorophenyl)-5-(prop-2-yn-1-yloxy)picolinamide], the results for the IC50 in test [1], in test [2] and in test [3] were 588 µM, 0.0164 µM and 0.0418 µM, respectively.
As for `CC#CCOc1ccc(C(=O)Nc2ccc(F)c([C@@]3(C(F)F)N=C(N)O[C@@H]4C[C@@H]43)c2)nc1` [Example 233, N-(3-((1R,5S,6R)-3-amino-5-(difluoromethyl)-2-oxa-4-azabicyclo[4.1.0]hept-3-en-5-yl)-4-fluorophenyl)-5-(but-2-yn-1-yloxy)picolinamide], the IC50 was determined as 244 µM in test [1], 0.0057 µM in test [2] and 0.024 µM in test [3].
`Cc1cc(C(F)F)cnc1C(=O)Nc1cnc(F)c([C@@]2(CF)N=C(N)O[C@@H]3C[C@@H]32)c1` [Example 234, N-(5-((1R,5S,6R)-3-amino-5-(fluoromethyl)-2-oxa-4-azabicyclo[4.1.0]hept-3-en-5-yl)-6-fluoropyridin-3-yl)-5-(difluoromethyl)-3-methylpicolinamide]: the half-inhibitory concentration (IC50) in test [1] was greater than 14.8 µM; in test [2] it was 0.283 µM; in test [3], 0.0596 µM.
On the same counts, the results for `NC1=N[C@](CF)(c2cc(NC(=O)c3ccc(Br)cn3)cnc2F)[C@H]2C[C@H]2O1` [Example 235, N-(5-((1R,5S,6R)-3-amino-5-(fluoromethyl)-2-oxa-4-azabicyclo[4.1.0]hept-3-en-5-yl)-6-fluoropyridin-3-yl)-5-bromopicolinamide] are 1810 µM, 0.126 µM and 0.0188 µM.
Turning to `NC1=N[C@@](c2cc(NC(=O)c3ccc(OCC(F)(F)F)cn3)ccc2F)(C(F)F)[C@H]2C[C@H]2O1` [Example 236, N-(3-((1R,5S,6R)-3-amino-5-(difluoromethyl)-2-oxa-4-azabicyclo[4.1.0]hept-3-en-5-yl)-4-fluorophenyl)-5-(2,2,2-trifluoroethoxy) picolinamide], the half-maximal inhibitory concentration (IC50) in test [1] was determined as 4250 µM; in test [2] it was 0.104 µM; in test [3] it was 0.296 µM.
`NC1=N[C@@](c2cc(NC(=O)C3CCCCC3)ccc2F)(C(F)F)[C@H]2C[C@H]2O1` [Example 239, N-(3-((1R,5S,6R)-3-amino-5-(difluoromethyl)-2-oxa-4-azabicyclo[4.1.0]hept-3-en-5-yl)-4-fluorophenyl) cyclohexanecarboxamide]: the figures for the 50% inhibitory concentration (IC50) in test [1], in test [2] and in test [3] were greater than 400 µM, greater than 40 µM and greater than 15.6 µM, respectively.
In the case of `COCC(=O)Nc1ccc(F)c([C@@]2(C(F)F)N=C(N)O[C@@H]3C[C@@H]32)c1` [Example 240, N-(3-((1R,5S,6R)-3-amino-5-(difluoromethyl)-2-oxa-4-azabicyclo[4.1.0]hept-3-en-5-yl)-4-fluorophenyl)-2-methoxyacetamide], the 50% inhibitory concentration (IC50) in test [1] came to 48.1 µM; in test [2], 0.821 µM; in test [3], 0.712 µM.
As to `NC1=N[C@@](c2cc(NC(=O)CC3CCCCC3)ccc2F)(C(F)F)[C@H]2C[C@H]2O1` [Example 241, N-(3-((1R,5S,6R)-3-amino-5-(difluoromethyl)-2-oxa-4-azabicyclo[4.1.0]hept-3-en-5-yl)-4-fluorophenyl)-2-cyclohexylacetamide], the values for the concentration for half-maximal inhibition (IC50) in test [1], in test [2] and in test [3] were greater than 400 µM, greater than 40 µM and greater than 15.6 µM, respectively.
Consider `NC1=N[C@@](c2cc(NC(=O)C3CCOCC3)ccc2F)(C(F)F)[C@H]2C[C@H]2O1` [Example 242], for which the figures for the IC50 in test [1], in test [2] and in test [3] were 1910 µM, greater than 40 µM and greater than 15.6 µM, respectively.
With `NC1=N[C@@](c2cc(NC(=O)C3=CCCCC3)ccc2F)(C(F)F)[C@H]2C[C@H]2O1` [Example 243, N-(3-((1R,5S,6R)-3-amino-5-(difluoromethyl)-2-oxa-4-azabicyclo[4.1.0]hept-3-en-5-yl)-4-fluorophenyl)cyclohex-1-enecarboxamide], the IC50 in test [1] worked out at 1030 µM; in test [2] it was 24.4 µM; in test [3], 4.07 µM.
On the same counts, the results for `NC1=N[C@@](c2cc(NC(=O)C3(c4ccc(Cl)cc4)CC3)ccc2F)(C(F)F)[C@H]2C[C@H]2O1` [Example 245, N-(3-((1R,5S,6R)-3-amino-5-(difluoromethyl)-2-oxa-4-azabicyclo[4.1.0]hept-3-en-5-yl)-4-fluorophenyl)-1-(4-chlorophenyl) cyclopropanecarboxamide] are 447 µM, greater than 40 µM and greater than 15.6 µM.
`NC1=N[C@@](c2cc(NC(=O)C3(c4ccc(Cl)cc4)CCC3)ccc2F)(C(F)F)[C@H]2C[C@H]2O1` [Example 246, N-(3-((1R,5S,6R)-3-amino-5-(difluoromethyl)-2-oxa-4-azabicyclo[4.1.0]hept-3-en-5-yl)-4-fluorophenyl)-1-(4-chlorophenyl) cyclobutanecarboxamide]: the IC50 in test [1] was 324 µM; in test [2], greater than 40 µM; in test [3] it was greater than 15.6 µM.
As for `COCCC(=O)Nc1ccc(F)c([C@@]2(C(F)F)N=C(N)O[C@@H]3C[C@@H]32)c1` [Example 247, N-(3-((1R,5S,6R)-3-amino-5-(difluoromethyl)-2-oxa-4-azabicyclo[4.1.0]hept-3-en-5-yl)-4-fluorophenyl)-3-methoxypropanamide], the 50% inhibitory concentration (IC50) in test [1] was determined as 486 µM; in test [2], 25.5 µM; in test [3] it was 4.34 µM.
Turning to `Cn1cc(C(=O)Nc2ccc(F)c([C@@]3(C(F)F)N=C(N)O[C@@H]4C[C@@H]43)c2)ccc1=O` [Example 248, N-(3-((1R,5S,6R)-3-amino-5-(difluoromethyl)-2-oxa-4-azabicyclo[4.1.0]hept-3-en-5-yl)-4-fluorophenyl)-1-methyl-6-oxo-1,6-dihydropyridine-3-carboxamide], the IC50 in test [1] was 1230 µM; in test [2], 40.5 µM; in test [3], greater than 15.6 µM.
The matching figures for `Cn1ccc(C(=O)Nc2ccc(F)c([C@@]3(C(F)F)N=C(N)O[C@@H]4C[C@@H]43)c2)cc1=O` [Example 249, N-(3-((1R,5S,6R)-3-amino-5-(difluoromethyl)-2-oxa-4-azabicyclo[4.1.0]hept-3-en-5-yl)-4-fluorophenyl)-1-methyl-2-oxo-1,2-dihydropyridine-4-carboxamide]: 1590 µM, greater than 40 µM and greater than 15.6 µM.
With `NC1=N[C@@](c2cc(NC(=O)c3ccc(OCC#CC4CC4)cn3)ccc2F)(C(F)F)[C@H]2C[C@H]2O1` [Example 250, N-(3-((1R,5S,6R)-3-amino-5-(difluoromethyl)-2-oxa-4-azabicyclo[4.1.0]hept-3-en-5-yl)-4-fluorophenyl)-5-((3-cyclopropylprop-2-yn-1-yl)oxy)picolinamide], the half-inhibitory concentration (IC50) in test [1] is 77.5 µM; in test [2], 0.0218 µM; in test [3], 0.603 µM.

Broadly, the IC50 is the midpoint of a concentration-inhibition curve.
